For this test, the system named is CEM cells HIV-1 protection, formazan growth assay. The test can be described thus: NCI AIDS Antiviral Assay. The note with it: for IC50: measured here: growth of uninfected CEM cells. In short, it runs like this: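 Screen of anti-HIV-1 activity in human CEM cells using a formazan-based growth measurement at five drug concentrations. Hits with 50% or greater protection were repeated, and confirmation required reproducible complete protection.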

For 51 compounds, EC50, IC50 and outcome results are on record in PubChem BioAssay AID179 (DTP/NCI, 2004).

Activity calls are given as the source filed them.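 How the source made its calls: active means compounds giving half or more protection of infected cells from virus-caused growth loss, again on retest; inactive means the rest.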

By EC50 is commonly meant the concentration at which the effect is half-maximal. The IC50 is the concentration that inhibits the measured activity by half. Turning to `O=C1CC[C@H](O)Cc2ccc(O)c(c2)-c2cc(ccc2O)CC1O` (stereo partly specified), the EC50 was above 759 µM and the IC50 came out at 724 µM.

Consider `C=CC(=O)NC(N)=NC#N`, for which the EC50 is above 1820 µM and the IC50 came out at 60.3 µM.

On to `NC(CSC[C@H](N)C(=O)O)C(=O)O` (stereo partly specified), for which the result was inactive.

As for `CC1CC(C)(C)C2=NCCN21` (stereo unspecified), the EC50 is above 1620 µM and the IC50 was above 1620 µM.

`Cc1ccc(S(=O)(=O)CC2(Br)Cc3ccccc3C2=O)cc1` (stereo unspecified): the EC50 is above 200 µM and the half-inhibitory concentration (IC50) stood at 5.75 µM.

In the case of `CC(=O)OCC1OC(n2c3c(cc(C#N)c2=S)CCC3)C(OC(C)=O)C(OC(C)=O)C1OC(C)=O` (stereo unspecified), the EC50 was above 200 µM and the IC50 was found to be 102 µM.

As for `S=c1nc(COc2ccc(Cl)cc2Cl)[nH][nH]1`, the EC50 is above 67.6 µM and the IC50 was 51.3 µM.

As for `O=C1/C(=C/c2ccc(Br)cc2)CCC/C1=C\c1ccc(Br)cc1`, the EC50 is above 6.31 µM and the IC50 was above 6.31 µM.

`Cc1ccc(S(=O)(=O)c2ccsc2NC(=O)C(F)(F)F)cc1`: the EC50 is above 200 µM and the IC50 was 46.8 µM.

As to `O=[N+]([O-])C(=C(N1CCCCC1)N1CCCCC1)/C(Cl)=C(\Cl)Br`, the EC50 was above 200 µM and the IC50 was determined as 1.29 µM.

Consider `c1ccc(-c2nc3c(N4CCOCC4)ncnc3o2)cc1`, for which the EC50 was above 25.7 µM and the IC50 is above 25.7 µM.

For the compound `Nc1c(N=Nc2ccc(CCc3ccc(N=Nc4cc(S(=O)(=O)O)c5cccc(S(=O)(=O)O)c5c4N)cc3S(=O)(=O)O)c(S(=O)(=O)O)c2)cc(S(=O)(=O)O)c2cccc(S(=O)(=O)O)c12`, the EC50 was 6.31 µM and the IC50 turned out to be 148 µM.

As to `CCOC1(OCC)C([N+](=O)[O-])=CC(=[N+]([O-])O)C=C1[N+](=O)[O-]`, the EC50 was above 724 µM and the IC50 was determined as 204 µM.

Regarding `COC(=O)C(Cc1ccccc1I)C1=CCC2(CC1)OCCO2` (stereo unspecified), the EC50 was above 200 µM and the IC50 stood at 49 µM.

Turning to `Cc1ccc(S(=O)(=O)Nn2c(C)cc3ccc(S(=O)(=O)Nc4ccccc4[N+](=O)[O-])cc3c2=O)cc1`, the EC50 is above 200 µM and the half-inhibitory concentration (IC50) was 10.2 µM.

`O=S(=O)(O)c1cc(O)c2c(N=Nc3ccc(N=Nc4c(S(=O)(=O)O)cc5cc(Nc6ccccc6)ccc5c4O)c4ccccc34)cc(S(=O)(=O)O)cc2c1`: the result was inactive.

For `Brc1cc(C2OCCCO2)ccc1OCc1ccccc1`, the EC50 is above 53.7 µM and the IC50 is above 53.7 µM.

Regarding `CCOC(=O)C[P+](c1cccc(F)c1)(c1cccc(F)c1)c1cccc(F)c1`, the EC50 is above 200 µM and the concentration for half-maximal inhibition (IC50) is 166 µM.

As to `CC(C)/C(Cl)=N/OC(=O)Nc1cccc(C(F)(F)F)c1`, the EC50 is above 20 µM and the IC50 was determined as 3.02 µM.

With `CC(CC(=O)O)CC(=O)OC[C@]12CC[C@@H](C(C)C)[C@@H]1[C@H]1CC[C@@H]3[C@@]4(C)CC[C@H](OC(=O)CC(C)CC(=O)O)C(C)(C)[C@@H]4CC[C@@]3(C)[C@]1(C)CC2` (stereo partly specified), the EC50 was above 200 µM and the IC50 was 16.6 µM.

As to `Cc1c(CN)c(C)c(CN)c(C)c1CN`, the EC50 is above 200 µM and the IC50 was determined as 97.7 µM.

For the compound `CC12C(=O)OC(=O)C1(C)C1C=CC2O1` (stereo unspecified), the EC50 is above 200 µM and the IC50 turned out to be 132 µM.

As to `Clc1cc2nsnc2c(Cl)n1`, the EC50 was above 457 µM and the IC50 came out at 2.75 µM.

As to `Clc1ccc(/C=C/c2nc3ccccc3s2)cc1Cl`, the EC50 is above 200 µM and the IC50 is 83.2 µM.

As to `OCc1cc[te]c1`, the result was inactive.

Regarding `COc1cc(N=Nc2cc(NC(C)=O)c(N=Nc3ccc(S(=O)(=O)O)cc3)cc2S(=O)(=O)O)c(C)cc1N=Nc1cc(OC)c(NC(=O)c2ccc(N)cc2)cc1C`, the EC50 was 4.57 µM and the IC50 stood at 191 µM.

`CCC1(CC)C(=O)N(C(=O)c2ccc(C)cc2)N(C(=O)c2ccc(C)cc2)C1=O`: the EC50 was above 200 µM and the IC50 worked out at 20.4 µM.

In the case of `CNS(=O)(=O)c1ccccc1C(C)(O)c1ccccc1` (stereo unspecified), the EC50 is above 200 µM and the IC50 was above 200 µM.

For the compound `C=C1N2[C@@H](CO)[C@H](c3ccccc3)O[C@]2(C)CC[C@]1(C)Cc1ccccc1`, the EC50 was above 200 µM and the IC50 was 83.2 µM.

For `OCC1CC(F)C(n2cnc3c(NO)ncnc32)O1` (stereo unspecified), the EC50 was above 151 µM and the IC50 is above 151 µM.

Take `CC1(C(=O)O)CCC(C(=O)O)C(C)(C)O1` (stereo unspecified): the EC50 was above 200 µM and the IC50 was above 200 µM.

Regarding `O=C1Cc2csc3nc(=O)cc(n23)N1`, the EC50 is above 120 µM and the IC50 is above 120 µM.

Consider `COC(=O)/C=C(C)/C=C\COC1CCCCO1` (stereo unspecified), for which the EC50 is above 200 µM and the IC50 is above 200 µM.

As for `CCCCCCCCCCNC1CC(OC2CC(O)(C(O)CO)Cc3c(O)c4c(c(O)c32)C(=O)c2c(OC)cccc2C4=O)OC(C)C1O` (stereo unspecified), the result was inactive.

Take `COC(=O)c1c(-c2ccccc2)c(C(O)c2ccccc2)n2ccccc12` (stereo unspecified): the EC50 is above 26.3 µM and the IC50 is 14.1 µM.

Turning to `C=CS(=O)(=O)CCN1CC1`, the EC50 was above 200 µM and the IC50 was above 200 µM.

On to `COc1ccc(/C(C#N)=C\c2ccc(N(C)C)cc2)cc1`, for which the EC50 was above 100 µM and the half-maximal inhibitory concentration (IC50) came out at 1.23 µM.

For the compound `CN1C(=O)C(Cl)(C(Cl)(Cl)S(=O)(=O)O)C(=O)c2ccccc21` (stereo unspecified), the result was inactive.

Turning to `COc1ccc2c(c1)C=CC1OC(C(C)=O)(C(C)=O)C(C=O)=CN21` (stereo unspecified), the EC50 was above 79.4 µM and the IC50 turned out to be 38.9 µM.

With `COC(=O)C(C(=O)C(=O)Nc1cccc([N+](=O)[O-])c1)c1nc2ccc([N+](=O)[O-])cc2[nH]c1=O` (stereo unspecified), the EC50 was above 550 µM and the IC50 is 309 µM.

In the case of `Cc1c(O)c2ccccc2c2c1sc(NCCCN(CCO)CCO)[n+]2C`, the EC50 is above 200 µM and the IC50 was determined as 11.2 µM.

For the compound `O=C1OC(c2ccccc2)=N/C1=C\c1c(O)cc(O)cc1O`, the EC50 was above 87.1 µM and the IC50 is above 87.1 µM.

As for `CC(C)(C)[Si](C)(C)OCC1OC(n2ccc(=O)[nH]c2=O)C(O[Si](C)(C)C(C)(C)C)C1(CC#N)Sc1ccccc1` (stereo unspecified), the EC50 is above 200 µM and the IC50 stood at 10.7 µM.

As to `CC1CN(c2cc3c(cc2F)c(=O)c(C(=O)O)cn3-c2ccc(F)cn2)CC(C)N1` (stereo unspecified), the EC50 is above 200 µM and the IC50 was above 200 µM.

As to `O=C1/C(=C/c2cccc3ccccc23)Cc2ccccc21`, the EC50 is above 200 µM and the half-maximal inhibitory concentration (IC50) stood at 97.7 µM.

As for `C[C@]12CC[C@@H]3c4ccc(OS(=O)(=O)O)cc4CC[C@H]3[C@@H]1CCC2=O`, the outcome was inactive.

`COC1/C=C\OC2(C)Oc3c(C)c(O)c4c(c3C2=O)C(=O)C=C(NC(=O)C(C)=C/C=C\C(C)C(O)C(C)C2OC(C)(C)OC(C1C)C2C)C4=O` (stereo unspecified): the EC50 is above 19.5 µM and the IC50 turned out to be 2.4 µM.

With `O=c1[nH]nc(-c2ccccc2)n1Nc1ccccc1`, the EC50 is above 200 µM and the IC50 was above 200 µM.

Take `Cc1c(-c2nc(N)c(C#N)c(N)c2C#N)c(=O)oc2ccccc12`: the EC50 is above 200 µM and the IC50 turned out to be 115 µM.

Regarding `Clc1ccc(CCN2CCOCC2)c(Cl)c1`, the EC50 is above 63.1 µM and the IC50 was above 63.1 µM.

With `C=CCN1CC2CON(C(=O)C(OC)(c3ccccc3)C(F)(F)F)C2C1C(C)C` (stereo unspecified), the EC50 was above 200 µM and the IC50 is 37.2 µM.
